Experimental findings from US8288548B2, “Oxazolo[5-4-b]pyridin-5-yl compounds” (Eli Lilly and Company, priority 2010, dated 2012) are described below.

In test [1] the target is human p38α MAP kinase (Homo sapiens, UniProt Q16539). The experiment in a line: Inhibition of p38α MAP kinase enzyme activity (33P-ATP filter assay). Format: biochemical. The settings on record: 100 μM ATP, 11.8 nM p38α MAP kinase. On the procedure: The kinase reaction buffer is prepared as a stock solution containing 1440 μL of 1 M 4-(2-hydroxyethyl)-1-piperazineethanesulfonic acid (HEPES) pH 7.5, 240 μL of 1 M MgCl2, 72 μL of 1 M dithiothreitol (DTT), 25 μL of 10% TRITON® X-100, 43223 μL of H2O. The substrate mix is prepared by combining the following: 2775 μL kinase reaction buffer, 75.0 μL adenosine triphosphate (ATP) at 10 mM, 270 μL EGFR peptide (Upstate Biotechnology/Millipore) at 4 mM (9.17 mg/mL) and 12.5 μL ^33P-ATP. The p38 MAP kinase enzyme stock solution is prepared by diluting 0.1 mg/mL solution of purified human p38α MAP kinase in 3000 μL of reaction buffer. Stock solutions of test compounds are generated by dissolving the compounds in 100% dimethyl sulfoxide (DMSO) at 10 mM. 100 μM stock dilution plates are generated by diluting 2 μL of 10 mM stock in 198 μL of 20% DMSO. 1:3 dilutions in 20% DMSO are generated from the 100 μM stock using a Tecan liquid handler.
human p38α MAP kinase, sequence (Q16539 whole entry): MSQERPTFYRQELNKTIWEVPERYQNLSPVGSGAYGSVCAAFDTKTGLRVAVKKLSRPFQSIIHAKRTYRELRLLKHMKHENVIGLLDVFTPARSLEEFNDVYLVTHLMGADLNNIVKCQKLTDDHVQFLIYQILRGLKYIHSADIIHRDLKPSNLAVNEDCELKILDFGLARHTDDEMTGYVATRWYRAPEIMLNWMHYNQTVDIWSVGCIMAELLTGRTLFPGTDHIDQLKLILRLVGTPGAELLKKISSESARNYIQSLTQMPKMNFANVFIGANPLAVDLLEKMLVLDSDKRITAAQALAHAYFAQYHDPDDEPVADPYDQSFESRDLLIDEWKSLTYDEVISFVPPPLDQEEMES
For the kinase assay, 5 μL of diluted compound is transferred to the reaction plate, followed by 10 μL of enzyme stock solution (added using a MULTIDROP® liquid dispenser). […] Following the washing steps, 80 μL of MICROSCINT™20 is added and the radioactivity counted in a Trilux MICROBETA®. IC50 values are calculated using Activity Base software (IDBS).

In test [2] the target is T1, p38β MAP kinase (Homo sapiens, UniProt Q15759).
T1 construct: purchased Upstate Biotechnology/Millipore
T1 sequence (Q15759 whole entry): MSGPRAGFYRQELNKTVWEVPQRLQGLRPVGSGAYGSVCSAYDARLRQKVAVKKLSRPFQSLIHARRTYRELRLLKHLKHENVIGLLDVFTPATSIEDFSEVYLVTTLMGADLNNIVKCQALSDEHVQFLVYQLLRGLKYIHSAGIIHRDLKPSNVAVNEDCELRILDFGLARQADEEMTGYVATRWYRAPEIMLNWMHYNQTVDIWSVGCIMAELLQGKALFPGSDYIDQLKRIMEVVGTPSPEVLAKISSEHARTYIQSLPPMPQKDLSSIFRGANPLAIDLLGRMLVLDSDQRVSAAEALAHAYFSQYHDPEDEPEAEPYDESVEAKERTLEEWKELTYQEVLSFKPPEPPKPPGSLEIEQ
The experiment in a line: Inhibition of p38β MAP kinase enzyme activity. The test is classed as biochemical. The settings on record: 20 μM ATP. The method, then: The kinase reaction buffer is prepared essentially as described above. The substrate mix is prepared by combining the following: 2840 μL Kinase Reaction Buffer, 15.0 μL ATP at 10 mM, 125 μL EGFR peptide at 4 mM (9.174 mg/ml), 18.75 μL ^33P-ATP. The p38β MAP kinase enzyme stock solution is prepared by diluting 2.25 μL of a 0.57 mg/mL solution of commercial p38β MAP kinase (Upstate Biotechnology/Millipore) in 2000 μL of reaction buffer. Stock solutions of test compounds are generated essentially as described above.
The kinase assay is performed essentially as described for p38α MAP kinase. Final reaction conditions are as follows: 25 mM HEPES pH 7.5, 4.25 mM MgCl2, 1.30 mM DTT, 0.004% TRITON® X-100, 20 μM ATP, 65 μM EGFR peptide, 0.25 ng/μL p38β MAP kinase, 4% DMSO. […] For example, Example 1 has an IC50=0.007 μM.

Test [3] has as its system p38 MAP kinase. The experiment in a line: Inhibition of p38 MAP kinase in the cell-based assay (p-MAPKAPK2 cELISA, TNFα-stimulated HeLa cells). To be noted: Homo sapiens, TNFα stimulation, read-out: Relative IC50.
The subject of test [4] is p38 MAP kinase. The experiment in a line: In vivo inhibition of p38 MAP kinase in U87MG tumor-bearing mice (p-MAPKAPK2 in tumor lysates). To be noted: oral, 2 hours after dosing. Set-up: species or system athymic nude mice. On the procedure:
A murine xenograft model utilizing the human tumor cell line, U87MG, is used for assessment of inhibition of p38 MAP kinase in tumors
Female athymic nude mice (24-26 g, Harlan) are injected subcutaneously in the rear flank with 5×10^6 U87MG cells per animal Cells are injected in a 0.2 mL volume with a 1:1 mixture of cell culture media and BD […]™ matrix. 7 days after implant tumors are measured using a caliper and the data recorded. Tumors are measured twice weekly thereafter and the tumor size is recorded. When tumors reach an average volume of approximately 250 mm^3 (usually 10-15 days after implant), animals are randomized into groups of 8-10 for treatment. Animals are then dosed orally with 0.2 mL vehicle (1% HEC, 0.25% TWEEN® 80, 0.05% antifoam) alone or vehicle containing test compound. 2 Hours after dosing, animals are euthanized. […]
p-MAPKAPK2 levels in the tumor lysates are determined using a Mesoscale Discovery (MSD) capture ELISA kit (2 Phospho-MAPKAPK-2 (Thr334)). The concentration of protein in the lysates is determined using a BioRad DC protein assay kit (BioRad). […] Following incubation with the detection antibody, the MSD plate is washed followed by addition of MSD read buffer. After passage of current over the electrode, electro-chemiluminescence results in the generation of light that is quantified using the MSD Sector 6000 instrument. […]

One may read the IC50 as the concentration at which inhibition is half-maximal. Consider `COCC[C@H](C)Nc1nc2ccc(-c3nc(C(C)(C)CO)[nH]c3-c3ccc(F)cc3F)nc2o1` [Example 1, 2-[5-(2,4-Difluorophenyl)-4-[2-[[(1S)-3-methoxy-1-methyl-propyl]amino]oxazolo[5,4-b]pyridin-5-yl]-1H-imidazol-2-yl]-2-methyl-propan-1-ol], for which the IC50 amounted to 3 nM in test [1], 7 nM in test [2] and 1.6 nM in test [3]. Moreover, the “TED70 for p38 MAP kinase target inhibition in tumors” value in test [4] was determined as 2.9 mg/kg. The same molecule had a TEC70 in test [4] (U87MG tumors) of 31.3 ng/mL.
